Reference: patent US20260159499A1, “COMPOUND AS FAK INHIBITOR AND USE THEREOF” (WIGEN BIOMEDICINE TECHNOLOGY (SHANGHAI) CO., LTD., priority 2021, published 2026)

Legend:
PC3 cells [1] = test: PC3 cell proliferation, 2D activity detection; type: cell-based, human; conditions: Homo sapiens, PC-3, PC3, 2D, 72 h, read-out: 2D IC50 against PC3 cells
Experimental: 2D activity detection: 1200 PC3 cells were seeded in a 96-well plate. After overnight adherence culture, the compound serially diluted was added. 72 h after addition, Cell Titer-Lumi (Beyotime C0068XL) was added to measure the ATP content in the cells. The growth of the cells was evaluated, and IC50 of the compounds against cell growth was calculated.

FAK recombinant protein = FAK recombinant protein (Homo sapiens, UniProt Q05397); test: Inhibitory activity against FAK enzyme; type: biochemical; conditions: TK substrate, ATP
Experimental: The compound serially diluted with DMSO and a FAK recombinant protein were mixed, and the mixture was left to stand at room temperature for 10 min. A biotin-labeled TK substrate (TK) and ATP were then added. […] After the mixture was incubated at room temperature for 1 h, the fluorescence intensity at 615 nm and 665 nm was measured. The ratio of the fluorescence intensity at 665 nm and 615 nm was calculated. The inhibition percentages and IC50 of the compounds were calculated compared to the DMSO control group.

[2] = In vivo pharmacokinetic experiment in mice; set-up: species or system CD-1 female mice; conditions: female, mouse, plasma, CD-1 mice
Experimental: On the day of the experiment, animals in the intravenous group were administered the corresponding compound by single injection via the tail vein at an administration volume of 10 mL/kg, and animals in the oral group were administered the corresponding compound by single intragastric injection at an administration volume of 10 mL/kg. The animals were weighed before administration, and the administration volume was calculated according to the body weight. […] About 200 μL of whole blood was collected through the orbital venous plexus at each time point and used to prepare plasma for concentration determination by high-performance liquid chromatography-tandem mass spectrometry (LC-MS/MS). The plasma concentrations were processed using a non-compartmental model of Winnolin pharmacokinetic software, and the pharmacokinetic parameters were calculated using a linear-log trapezoidal method.

PC3 cells [3] = test: PC3 cell proliferation, 3D activity detection; type: cell-based, human; conditions: Homo sapiens, PC-3, 336 h, PC3, 3D culture, 14 days, read-out: 3D IC50 against PC3 cells
Experimental: 3D activity detection: PC3 cells were seeded in a 96-well plate at 1200 cells/well, and 3D culture was performed. 14 days after the compound serially diluted was added, the growth of the cells was determined. The inhibition percentage and IC50 of the compound were calculated compared to the DMSO control group.

PC3 cells [4] = test: Inhibition of PC3 cell adherence; type: cell-based; conditions: Homo sapiens, PC-3; PC3, 4 h treatment; read-out: Inhibitory activity against PC-3 cell adherence IC50
Experimental: PC3 cells were added at 8000 cells/well. 4 h after the cells were treated with the compound, the number of adherent cells was counted. The inhibition percentages and IC50 of the compounds were calculated compared to the DMSO group.

Chain of FAK recombinant protein (Q05397 whole entry, species assumed): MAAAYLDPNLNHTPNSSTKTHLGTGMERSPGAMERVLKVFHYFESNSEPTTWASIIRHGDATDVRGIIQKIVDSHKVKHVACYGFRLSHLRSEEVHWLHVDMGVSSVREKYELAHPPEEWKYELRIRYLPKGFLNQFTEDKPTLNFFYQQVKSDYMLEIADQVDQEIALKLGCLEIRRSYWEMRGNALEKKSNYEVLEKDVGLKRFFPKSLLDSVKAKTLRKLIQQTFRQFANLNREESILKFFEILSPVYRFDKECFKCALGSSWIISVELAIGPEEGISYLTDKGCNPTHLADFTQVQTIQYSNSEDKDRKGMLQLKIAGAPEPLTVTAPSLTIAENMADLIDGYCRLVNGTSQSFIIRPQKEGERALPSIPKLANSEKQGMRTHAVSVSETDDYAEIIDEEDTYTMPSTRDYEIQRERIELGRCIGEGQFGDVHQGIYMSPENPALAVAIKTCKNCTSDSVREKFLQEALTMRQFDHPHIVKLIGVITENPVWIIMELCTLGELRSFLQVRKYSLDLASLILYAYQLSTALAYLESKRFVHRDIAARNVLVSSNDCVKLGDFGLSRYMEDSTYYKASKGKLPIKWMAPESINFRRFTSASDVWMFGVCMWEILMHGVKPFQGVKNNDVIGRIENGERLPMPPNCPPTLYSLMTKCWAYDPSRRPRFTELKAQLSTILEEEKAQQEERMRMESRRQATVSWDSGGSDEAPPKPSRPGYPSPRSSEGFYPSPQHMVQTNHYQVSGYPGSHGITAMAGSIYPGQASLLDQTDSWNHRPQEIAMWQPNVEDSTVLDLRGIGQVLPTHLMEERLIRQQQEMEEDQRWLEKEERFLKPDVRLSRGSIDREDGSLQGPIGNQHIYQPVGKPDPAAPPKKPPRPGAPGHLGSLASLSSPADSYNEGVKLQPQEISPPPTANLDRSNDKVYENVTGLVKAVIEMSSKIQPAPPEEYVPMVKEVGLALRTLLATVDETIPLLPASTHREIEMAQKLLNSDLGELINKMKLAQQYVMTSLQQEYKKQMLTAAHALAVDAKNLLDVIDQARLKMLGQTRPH

SMILES | IC50 (FAK recombinant protein) [nM] | IC50 (PC3 cells [4]) [nM] | IC50 (PC3 cells [1]; class symbol) [nM] | IC50 (PC3 cells [3]; class symbol) [nM] | other results
COc1cc(C(=O)NC2CCC3(CC2)CN(C)C3)c(F)cc1Nc1ncc(C(F)(F)F)c(Oc2cccc3c2C(=O)N(C)C3)n1 [Compound 20] | < 10 | – | – | – | IC50 (PC3 cells [1]; numeric): > 10000 nM; AUC(0-t) ([2]; injection (IV) 2 mg/kg): 622 ng·h/mL; clearance ([2]; injection (IV) 2 mg/kg): 26.8 mL/min/kg; half-life ([2]; injection (IV) 2 mg/kg): 3.46 h; Vd ([2]; injection (IV) 2 mg/kg, read-out: Vdss): 4.99 L/kg; AUC(0-t) ([2]; oral administration 10 mg/kg): 934 ng·h/mL; Cmax ([2]; oral administration 10 mg/kg): 190 ng/mL; Tmax ([2]; oral administration 10 mg/kg): 2 h; half-life ([2]; oral administration 10 mg/kg): 1.97 h; bioavailability ([2]; oral administration 10 mg/kg vs injection): 30%; IC50 (PC3 cells [3]; numeric (mean where marked *)): 4.23 nM
COc1cc(C(=O)NC2CCC23CCN(C)CC3)c(F)cc1Nc1ncc(C(F)(F)F)c(Oc2cccc3c2C(=O)N(C)C3)n1 (stereo not shown) [Compound 21] | 10 to 50 | 8.5 | – | – | IC50 (PC3 cells [1]; numeric): > 10000 nM; IC50 (PC3 cells [3]; numeric (mean where marked *)): 1.32 nM
COc1cc(C(=O)N2CC3(CCN(C)CC3)C2)c(F)cc1Nc1ncc(C(F)(F)F)c(Oc2cccc3c2C(=O)N(C)C3)n1 [Compound 34] | < 10 | 86 | > 2000 | – | IC50 (PC3 cells [3]; numeric (mean where marked *)): 41.3 nM
COc1cc(N2CC3(CCN(C)CC3)CC2=O)c(F)cc1Nc1ncc(C(F)(F)F)c(Oc2cccc3c2C(=O)N(C)C3)n1 [Compound 62] | < 10 | 2.88 | > 2000 | < 5 | –
COc1cc(N2CC3(CCN(C)C3)OC2=O)c(F)cc1Nc1ncc(C(F)(F)F)c(Oc2cccc3c2C(=O)N(C)C3)n1 (stereo not shown) [Compound 64] | < 10 | 3.33 | > 2000 | 5 to 50 | –
COc1cc(N2CC3(CCN(C)C3)OCC2=O)c(F)cc1Nc1ncc(C(F)(F)F)c(Oc2cccc3c2C(=O)N(C)C3)n1 (stereo not shown) [Compound 66] | < 10 | 7.01 | > 2000 | > 50 | –
COc1cc(N2CCC3(CC2)CN(C)C3)c(F)cc1Nc1ncc(C(F)(F)F)c(Oc2cccc3c2C(=O)N(C)C3)n1 [Compound 91] | < 10 | – | > 2000 | < 5 | –
COc1cc(N2CCC3(CC2)CN(C)C3)ccc1Nc1ncc(C(F)(F)F)c(Oc2cccc3c2C(=O)N(C)C3)n1 [Compound 92] | < 10 | 3.05 | – | – | IC50 (PC3 cells [1]; numeric): > 10000 nM; IC50 (PC3 cells [3]; numeric (mean where marked *)): 0.83 nM
COc1cc(N2CCC3(CCN(C)CC3)CC2)c(F)cc1Nc1ncc(C(F)(F)F)c(Oc2cccc3c2C(=O)N(C)C3)n1 [Compound 93] | < 10 | – | > 2000 | < 5 | –
COc1cc(N2CCC3(CCN(C)CC3)CC2)ccc1Nc1ncc(C(F)(F)F)c(Oc2cccc3c2C(=O)N(C)C3)n1 [Compound 94] | < 10 | 2.58 | > 2000 | < 5 | –
COc1cc(N2CCC3(CCN(C)C3)CC2)ccc1Nc1ncc(C(F)(F)F)c(Oc2cccc3c2C(=O)N(C)C3)n1 [Compound 95] | < 10 | – | > 2000 | < 5 | –
COc1cc(N2CCC3(CCN(C)CC3)C2)ccc1Nc1ncc(C(F)(F)F)c(Oc2cccc3c2C(=O)N(C)C3)n1 [Compound 96] | < 10 | – | > 2000 | < 5 | –
COc1cc(N2CCC23CCN(C)CC3)ccc1Nc1ncc(C(F)(F)F)c(Oc2cccc3c2C(=O)N(C)C3)n1 [Compound 97] | < 10 | – | > 2000 | < 5 | –
COc1cc(N2CCC3(CCN(C)C3)C2)ccc1Nc1ncc(C(F)(F)F)c(Oc2cccc3c2C(=O)N(C)C3)n1 (stereo not shown) [Compound 98] | < 10 | – | > 2000 | < 5 | –
COc1cc(N2CC3(CCN(C)CC3)C2)ccc1Nc1ncc(C(F)(F)F)c(Oc2cccc3c2C(=O)N(C)C3C)n1 (stereo not shown) [Compound 100] | < 10 | 1.33 | > 2000 | – | IC50 (PC3 cells [3]; numeric (mean where marked *)): 2.22 nM
COc1cc(N2CC3(CCN(C)CC3)C2)ccc1Nc1ncc(C(F)(F)F)c(Oc2cccc3c2C(=O)N(C)C3(C)C)n1 [Compound 101] | < 10 | 2.26 | > 2000 | – | IC50 (PC3 cells [3]; numeric (mean where marked *)): 4.86 nM
COc1cc(N2CC3(CCNCC3)C2)ccc1Nc1ncc(C(F)(F)F)c(Oc2cccc3c2C(=O)N(C)C3)n1 [Compound 102] | < 10 | 3.01 | > 2000 | < 5 | –
CCN1CCC2(CC1)CN(c1ccc(Nc3ncc(C(F)(F)F)c(Oc4cccc5c4C(=O)N(C)C5)n3)c(OC)c1)C2 [Compound 103] | < 10 | – | > 2000 | < 5 | –
COc1cc(N2CC3(CCN(C4CC4)CC3)C2)ccc1Nc1ncc(C(F)(F)F)c(Oc2cccc3c2C(=O)N(C)C3)n1 [Compound 104] | < 10 | – | > 2000 | < 5 | –
COc1cc(N2CC3(CCN(C4CCC4)CC3)C2)ccc1Nc1ncc(C(F)(F)F)c(Oc2cccc3c2C(=O)N(C)C3)n1 [Compound 105] | < 10 | – | > 2000 | < 5 | –
COc1cc(N2CC3(CCN(CC4CC4)CC3)C2)ccc1Nc1ncc(C(F)(F)F)c(Oc2cccc3c2C(=O)N(C)C3)n1 [Compound 106] | < 10 | – | > 2000 | < 5 | –
COc1cc(N2CC3(CCNCC3)C2)c(F)cc1Nc1ncc(C(F)(F)F)c(Oc2cccc3c2C(=O)N(C)C3)n1 [Compound 107, 7-((2-((5-fluoro-2-methoxy-4-(2,7-diazaspiro[3.5]non-2-yl)phenyl)amino)-5-(trifluoromethyl)pyrimidin-4-yl)oxy)-2-methylisoindolin-1-one] | < 10 | – | > 2000 | < 5 | –
[2H]C([2H])([2H])N1CCC2(CC1)CN(c1ccc(Nc3ncc(C(F)(F)F)c(Oc4cccc5c4C(=O)N(C)C5)n3)c(OC)c1)C2 [Compound 109, 7-((2-((2-methoxy-4-(7-(methyl-d3)-2,7-diazaspiro[3.5]non-2-yl)phenyl)amino)-5-(trifluoromethyl)pyrimidin-4-yl)oxy)-2-methylisoindolin-1-one] | < 10 | – | > 2000 | < 5 | –
COc1cc(N2CC3(CCN(C)CC3)C2)c(F)cc1Nc1ncc(Cl)c(Oc2cccc3c2C(=O)N(C)C3)n1 [Compound 110, 7-((5-chloro-2-((5-fluoro-2-methoxy-4-(7-methyl-2,7-diazaspiro[3.5]non-2-yl)phenyl)amino)pyrimidin-4-yl)oxy)-2-methylisoindolin-1-one] | < 10 | – | > 2000 | < 5 | –
COc1cc(N2CC3(CCN(C)CC3)C2)ccc1Nc1ncc(F)c(Oc2cccc3c2C(=O)N(C)C3)n1 [Compound 115] | < 10 | – | > 2000 | – | IC50 (PC3 cells [3]; numeric (mean where marked *)): 67 nM
COc1cc(N2CCC3(CC2)CN(C)C3)ccc1Nc1ncc(Cl)c(Oc2cccc3c2C(=O)N(C)C3)n1 [Compound 116] | < 10 | – | > 2000 | < 5 | –
COc1cc(N2CCC3(CC2)CN(C)C3)ccc1Nc1ncc(Br)c(Oc2cccc3c2C(=O)N(C)C3)n1 [Compound 117] | < 10 | – | > 2000 | < 5 | –
